Reference: patent publication US6927210B1, “Ectoparasiticidal aqueous suspension formulations of spinosyns” (Eli Lilly and Company, priority 1999, dated 2005)

Test: Solution state of spinosad in dip water
Assay type: physicochemical
Settings: 5 and 50 ppm
Description: Two trials were conducted to determine the degree to which spinosad is removed (stripped) from dip water after dipping sheep. In the trials, spinosad dip tank concentrations of 50 ppm and 5 ppm were prepared from an aqueous suspension containing 25 g/L of spinosad. Both trials involved dipping 10 Dorset-cross shorn sheep in 70 gallons (265 liters) of treated water. Each animal was dipped for 30 seconds duration, with the head immersed twice. Samples of dip water were taken for HPLC analysis, initially and after each sheep was dipped. The pH of the water was also determined after each animal was dipped. A dip tank concentration of 5 ppm of spinosad should provide lice control on sheep.

## spinosad
  Solution state in dip water (in words): in true solution at 5 and 50 ppm concentration
